Experimental data taken from patent US12286437B2, “Cardiac sarcomere inhibitors” (Cytokinetics, Inc., priority 2021, dated 2025).

Legend:
CYP2C8 = biological target: T1, CYP2C8 (Homo sapiens, UniProt P10632); assay: Time-dependent inhibition of CYP2C8 in human liver microsomes; format: in vitro ADME; conditions: for (% Activity NADPH T0)/(% Activity NADPH T30): fold change; for activity at 30 min, 25 µM / activity at 0 min, 25 µM / activity at 30 min, 50 µM / activity at 0 min, 50 µM: pooled human liver microsomes, human liver microsomes; for activity at 30 min, 25 µM / activity at 30 min, 50 µM: after 30 minutes incubation, read-out: % Activity NADPH T30; for activity at 0 min, 25 µM / activity at 0 min, 50 µM: time zero, read-out: % Activity NADPH T0
T1 construct: Pooled human microsomes and selective CYP probe substrates were used; from tissue; host or cells: pooled human liver microsomes
T1 sequence (P10632 1-490): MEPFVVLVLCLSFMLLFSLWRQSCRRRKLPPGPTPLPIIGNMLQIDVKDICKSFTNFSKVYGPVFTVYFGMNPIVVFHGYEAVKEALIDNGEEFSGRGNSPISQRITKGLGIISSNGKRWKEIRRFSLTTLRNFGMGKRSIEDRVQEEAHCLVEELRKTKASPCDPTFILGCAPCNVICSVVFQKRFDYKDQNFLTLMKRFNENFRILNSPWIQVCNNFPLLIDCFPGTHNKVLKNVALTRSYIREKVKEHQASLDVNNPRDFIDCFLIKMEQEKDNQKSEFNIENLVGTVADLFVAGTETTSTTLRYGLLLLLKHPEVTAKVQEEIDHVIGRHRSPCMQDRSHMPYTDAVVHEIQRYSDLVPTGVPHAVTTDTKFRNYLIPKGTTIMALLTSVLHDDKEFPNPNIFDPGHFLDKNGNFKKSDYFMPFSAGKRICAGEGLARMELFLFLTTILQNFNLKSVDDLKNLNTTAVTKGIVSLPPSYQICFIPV
Experimental: (§1) An assessment of the time-dependent Inhibitory Potential of the test compounds against Principal Human Cytochrome P450 Isozymes using Human Liver Microsomes was also carried out using standard methods (Grimm et al, Drug Metab. Dispos., July; 37(7):1355-70. doi: 10.1124/dmd.109.026716, 2009). Pooled human microsomes and selective CYP probe substrates were used for in vitro assessment of test compounds at 25 and 50 μM as time-dependent inhibitors of […] human hepatic cytochrome P450 isozymes (CYP1A2, 2B6, 2C9, 2C19, 2D6, and 3A4). LC-MS/MS was used to quantify metabolite formation. The inhibition of each P450 enzyme in human liver microsomes was measured as the percentage decrease in the activity of marker metabolite formation as measured by LC-MS/MS compared to non-inhibited controls (=100% activity) at time zero and after 30 minutes incubation. The occurrence of any time dependent inhibition was then expressed as the fold change in enzyme activity at time zero relative to the activity after 30 minutes incubation.

CYP2C19 = biological target: T2, CYP2C19 (Homo sapiens, UniProt P33261); assay: Time-dependent inhibition of CYP2C19 in human liver microsomes; format: in vitro ADME; conditions: for (% Activity NADPH T0)/(% Activity NADPH T30): fold change; for activity at 30 min, 25 µM / activity at 0 min, 25 µM / activity at 30 min, 50 µM / activity at 0 min, 50 µM: pooled human liver microsomes, human liver microsomes; for activity at 30 min, 25 µM / activity at 30 min, 50 µM: after 30 minutes incubation, read-out: % Activity NADPH T30; for activity at 0 min, 25 µM / activity at 0 min, 50 µM: time zero, read-out: % Activity NADPH T0
T2 construct: Pooled human microsomes and selective CYP probe substrates were used; from tissue; host or cells: pooled human liver microsomes
T2 sequence (P33261 whole entry): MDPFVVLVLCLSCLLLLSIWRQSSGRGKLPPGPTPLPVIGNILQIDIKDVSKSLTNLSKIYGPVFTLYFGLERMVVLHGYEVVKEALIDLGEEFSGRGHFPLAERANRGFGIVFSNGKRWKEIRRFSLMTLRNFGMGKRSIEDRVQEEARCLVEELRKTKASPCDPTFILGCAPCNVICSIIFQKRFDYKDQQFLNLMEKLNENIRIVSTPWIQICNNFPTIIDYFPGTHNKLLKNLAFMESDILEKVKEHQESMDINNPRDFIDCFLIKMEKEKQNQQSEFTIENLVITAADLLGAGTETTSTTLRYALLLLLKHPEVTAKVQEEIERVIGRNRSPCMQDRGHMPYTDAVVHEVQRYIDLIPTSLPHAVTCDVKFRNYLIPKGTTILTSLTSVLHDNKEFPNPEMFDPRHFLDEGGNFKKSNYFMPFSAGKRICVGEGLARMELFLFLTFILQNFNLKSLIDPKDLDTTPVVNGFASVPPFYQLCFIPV
Experimental: as §1

[1] = Mouse single dose pharmacokinetics; format: in vivo, C57BL/6 mice; conditions: male, C57BL/6, plasma, 0.5 mg/kg, IV; for Vd: read-out: Vss; for half-life: read-out: t½ (converted)
Experimental: Male C57BL/6 mice (18-25 g, 6-8 weeks old) were obtained from Zhejiang Vital River Laboratory Animal Technology Co., Ltd. All animals for IV administration had free access to food and water. The IV dosing was performed through tail vein. The IV dose solution for the Test Articles was prepared in 10% DMA/20% PG/70% HPβCD solution (40% w/v aqueous HPβCD) at a concentration of 0.1 mg/mL. The oral dosing suspension was prepared by suspending Test Article in 0.5% HPMC/0.1% Tween 80 in water at a concentration 0.2 mg/mL. Concentrations of IV and PO doses were measured at the end of the study. Pharmacokinetic (PK) parameters were calculated using the nominal dose values if the measured values were within 20% of the nominal values. A group of 15 mice received the IV dose where the volume was 5 mL/kg. Another group of 15 mice received by oral gavage of Test Article at 1 mg/kg. The oral dose volume was 5 mL/kg. Sparse blood samples were collected from groups of three mice via retro-orbital bleeding, placed into a K2EDTA microtainer tube and maintained on ice until centrifugation to obtain plasma. Each designated group of mice were bled at two-time points. The time points were predose (PO only), 5 (IV only), 15, 30 minutes, 1, 2, 4, 6, 8 and 24 hours postdose. Blood samples were centrifuged and the collected plasma was stored at −80° C. until analysis. Plasma samples were analyzed for Test Article concentrations using an LC/MS/MS method. Briefly, a 50 μL aliquot of each plasma sample was mixed with 100 μL of acetonitrile that contained an internal standard (IS). The mixture was vortexed and centrifuged. Ten (10) μL of the resulting solution was injected onto a reverse-phase C18 column and the resultant peaks detected on a LC/MS/MS equipped with a turbo ionspray ionization source. Sample concentrations below the limit of quantification (BLQ) were treated as zero for PK calculations. Composite PK parameters were estimated from a maximum of two sampling points per mouse and three mice per sampling point and the sparse data option of WinNonlin was used for noncompartmental analysis of the concentration-time data (Phoenix WinNonLin software, version 64; Pharsight, Mountain View, CA). The elimination rate constant (k) was calculated as the absolute value of the slope of the linear regression of logarithm of the concentration versus time for the last three data points of the concentration-time profiles. Apparent elimination half-life (t1/2) values were calculated as ln(2)/k. Area under the concentration-time curve (AUC) values were estimated using linear trapezoidal method. AUCt values were calculated from the dosing time to the last measurable concentration. AUC∞ values were calculated as the sum of the corresponding AUCt and the ratio of the last detectable concentration divided by k. Plasma clearance (CL) was calculated from Dose/AUC∞. Mean resident time (MRT) was estimated by moment analysis. Volume of distribution at steady state (Vss) was calculated from MRT∞×CL. Maximum concentration (Cmax) and time to reach Cmax (tmax) were recorded as observed. Bioavailability was calculated dAUC∞,po/dAUC∞,iv×100% where dAUC was the dose normalized AUC value. Data for compounds tested are provided in Table B. Compounds tested were prepared in accordance with the synthetic procedures described herein.

Row | SMILES | (% Activity NADPH T0)/(% Activity NADPH T30) (CYP2C8; CYP2C8, 25 μM) | (% Activity NADPH T0)/(% Activity NADPH T30) (CYP2C8; CYP2C8, 50 μM) | (% Activity NADPH T0)/(% Activity NADPH T30) (CYP2C19; CYP2C19, 25 μM) | (% Activity NADPH T0)/(% Activity NADPH T30) (CYP2C19; CYP2C19, 50 μM) | (% Activity NADPH T0)/(% Activity NADPH T30) (CYP2C19; CYP2C19, 50 μM, listed as compound 4) | activity at 30 min, 25 µM (CYP2C8; CYP2C8, 25 μM) | activity at 0 min, 25 µM (CYP2C8; CYP2C8, 25 μM) | activity at 30 min, 50 µM (CYP2C8; CYP2C8, 50 μM) | activity at 0 min, 50 µM (CYP2C8; CYP2C8, 50 μM) | clearance [1] | Vd [1] | half-life [1] | activity at 30 min, 25 µM (CYP2C19; CYP2C19, 25 μM) | activity at 0 min, 25 µM (CYP2C19; CYP2C19, 25 μM) | activity at 30 min, 50 µM (CYP2C19; CYP2C19, 50 μM) | activity at 0 min, 50 µM (CYP2C19; CYP2C19, 50 μM)
1 | C[C@H]1CC[C@H](N2CC(=O)N(Cc3ccc(F)c(F)c3)C3(CN(C=O)C3)C2=O)CC1 [Compound 4, 5-(3,4-difluorobenzyl)-8-((1r,4r)-4-methylcyclohexyl)-6,9-dioxo-2,5,8-triazaspiro[3.5]nonane-2-carbaldehyde] | 1.0 | 1.2 | 1.4 | 1.1 | no change in activity |  |  |  |  |  |  |  |  |  |  | 
2 | CC(C)N1CC(=O)N(Cc2ccc(Cl)c(F)c2)C2(CN(c3cccnn3)C2)C1=O [Compound 8, 5-(4-chloro-3-fluorobenzyl)-8-isopropyl-2-(pyridazin-3-yl)-2,5,8-triazaspiro[3.5]nonane-6,9-dione] | 1.0 | 1.0 | 0.9 | 1.0 |  | 117% | 117% | 112% | 110% | 132 mL/min/kg | 5.14 L/kg | 0.66 h | 99% | 94% | 92% | 93%
3 | CC(C)N1CC(=O)N(Cc2ccc(C(F)(F)F)cc2)C2(CN(c3cccnn3)C2)C1=O [Compound 13, 8-isopropyl-2-(pyridazin-3-yl)-5-(4-(trifluoromethyl)benzyl)-2,5,8-triazaspiro[3.5]nonane-6,9-dione] | 1.2 | 1.0 | 1.0 | 0.9 |  | 98% | 116% | 106% | 106% | 101 mL/min/kg | 2.25 L/kg | 0.46 h | 108% | 108% | 119% | 113%

The next lines start with the values.

Row | (% Activity NADPH T0)/(% Activity NADPH T30) (CYP2C8; CYP2C8, 25 μM) | (% Activity NADPH T0)/(% Activity NADPH T30) (CYP2C8; CYP2C8, 50 μM) | (% Activity NADPH T0)/(% Activity NADPH T30) (CYP2C19; CYP2C19, 25 μM) | (% Activity NADPH T0)/(% Activity NADPH T30) (CYP2C19; CYP2C19, 50 μM) | (% Activity NADPH T0)/(% Activity NADPH T30) (CYP2C19; CYP2C19, 50 μM, listed as compound 4) | activity at 30 min, 25 µM (CYP2C8; CYP2C8, 25 μM) | activity at 0 min, 25 µM (CYP2C8; CYP2C8, 25 μM) | activity at 30 min, 50 µM (CYP2C8; CYP2C8, 50 μM) | activity at 0 min, 50 µM (CYP2C8; CYP2C8, 50 μM) | clearance [1] | Vd [1] | half-life [1] | activity at 30 min, 25 µM (CYP2C19; CYP2C19, 25 μM) | activity at 0 min, 25 µM (CYP2C19; CYP2C19, 25 μM) | activity at 30 min, 50 µM (CYP2C19; CYP2C19, 50 μM) | activity at 0 min, 50 µM (CYP2C19; CYP2C19, 50 μM) | SMILES
4 | 1.0 | 2.0 | 1.2 | 1.3 |  | 88% | 87% | 53% | 104% | 18.9 mL/min/kg | 4.08 L/kg | 3.08 h | 83% | 101% | 77% | 102% | C[C@H]1CC[C@H](N2CC(=O)N(Cc3ccc(F)c(F)c3)C3(CN(C(N)=O)C3)C2=O)CC1 [Compound 5, 5-(3,4-difluorobenzyl)-8-((1r,4r)-4-methylcyclohexyl)-6,9-dioxo-2,5,8-triazaspiro[3.5]nonane-2-carboxamide]
5 | 0.9 | 1.1 | 1.2 | 1.1 |  | 88% | 79% | 80% | 86% | 28.2 mL/min/kg | 2.52 L/kg | 1.27 h | 89% | 105% | 92% | 100% | Cc1cc(CN2C(=O)CN([C@H]3CC[C@H](C)CC3)C(=O)C23CN(C(N)=O)C3)ccc1F [Compound 6, 5-(4-fluoro-3-methylbenzyl)-8-((1r,4r)-4-methylcyclohexyl)-6,9-dioxo-2,5,8-triazaspiro[3.5]nonane-2-carboxamide]
6 | 1.1 | 1.1 | 1.0 | 1.0 |  | 64% | 72% | 103% | 109% | 15 mL/min/kg | 2.95 L/kg | 2.5 h | 87% | 87% | 83% | 82% | C[C@H]1CC[C@H](N2CC(=O)N(Cc3ccc(F)c(Cl)c3)C3(CN(C(N)=O)C3)C2=O)CC1 [Compound 7, 5-(3-chloro-4-fluorobenzyl)-8-((1r,4r)-4-methylcyclohexyl)-6,9-dioxo-2,5,8-triazaspiro[3.5]nonane-2-carboxamide]
7 | 0.7 | 1.3 | 1.0 | 1.1 |  | 100% | 65% | 76% | 100% | 21 mL/min/kg | 2.95 L/kg | 1.18 h | 99% | 103% | 84% | 91% | C[C@H]1CC[C@H](N2CC(=O)N(Cc3ccc(Cl)cc3)C3(CN(C(N)=O)C3)C2=O)CC1 [Compound 18, 5-(4-chlorobenzyl)-8-((1r,4r)-4-methylcyclohexyl)-6,9-dioxo-2,5,8-triazaspiro[3.5]nonane-2-carboxamide]
